In US10450297B2, “Sulfonyl amide derivatives for the treatment of abnormal cell growth” (Pfizer, Inc., priority 2007, dated 2019):

Target: FAK kinase (catalytic construct FAK(410-689)) (Homo sapiens (Human), UniProt Q05397)
Assay: FAKcd kinase ELISA (inhibition of poly-glu-tyr phosphorylation by FAK(410-689))
Assay type: biochemical
Conditions: 50 μM final ATP
Protocol: A. In-Vitro Activity of FAK:
The assay protocol has three parts:
3. […] 4. […] 5. […] 6. […] 7. […] 9. […] 10. […] 12. […] 13. […] 14. Aliquot the FAKcd protein and store frozen at −80° C. II. FAK Activation 1. […] At t120 (t=120 minutes), add 10 μl of 150 mM ATP. […] Add 180 μl aliquots of the desalted material to NiNTA spin column and incubate on spin column 4. […] FAKcd Kinase ELISA 1. Coat 96-well Nunc MaxiSorp plates with poly-glu-tyr (pGT) at […]: Prepare 10 μg/ml of pGT in PBS and aliquot 100 μl/well. Incubate the plates at 37° C. overnight, aspirate the supernatant, wash the plates 3 times with Wash Buffer, and flick to dry before storing at 4° C. 2. Prepare compound stock solutions of 2.5 mM in 100% DMSO. The stocks are subsequently diluted to 60× of the final concentration in 100% DMSO, and diluted 1:5 in Kinase Phosphorylation Buffer. 3. […] Add 80 μl to each well for a final ATP concentration of 50 μM. 4. […] 5. Dilute on ice, FAKcd protein to 1:1000 in Kinase Phosphorylation Buffer. Dispense 30 μl per well. 6. Note: Linearity and the appropriate dilution must be pre-determined for each batch of protein. The enzyme concentration selected should be such that quantitation of the assay signal will be approximately 0.8-1.0 at OD450, and in the linear range of the reaction rate. 7. Prepare both a No ATP control (noise) and a No Compound Control (Signal): 8. (Noise) One blank row of wells receives 10 μl of 1:5 diluted compounds in DMSO, 80 μl of Phosphorylation buffer (minus ATP), and 30 μl FAKcd solution. 9. […] 10. Incubate reaction at room temperature for 15 minutes with gentle shaking on a plate shaker. 11. Terminate the reaction by aspirating off the reaction mixture and washing 3 times with wash buffer. 12. Dilute phospho-tyrosine HRP-conjugated (pY20HRP) antibody to 0.250 μg/ml (1:1000 of Stock) in blocking buffer. Dispense 100 μl per well, and incubate with shaking for 30 minutes at 25°. 13. Aspirate the supernatant and wash the plate 3 times with wash buffer. 14. Add 100 μl per well of room temperature TMB solution to initiate color development. Color development is terminated after approximately 15-30 sec. by the addition of 100 μl of 0.09M H2SO4 per well. 15. The signal is quantitated by measurement of absorbance at 450 nm on the BioRad ricroplate reader or a microplate reader capable of reading at OD450. 16. Inhibition of tyrosine kinase activity would result in a reduced absorbance signal. […] The values are reported as IC50s, μM concentration. FAK Inducible cell-based ELISA: Final Protocol Materials: […]

FAK kinase (catalytic construct FAK(410-689)), sequence (Q05397 410-689): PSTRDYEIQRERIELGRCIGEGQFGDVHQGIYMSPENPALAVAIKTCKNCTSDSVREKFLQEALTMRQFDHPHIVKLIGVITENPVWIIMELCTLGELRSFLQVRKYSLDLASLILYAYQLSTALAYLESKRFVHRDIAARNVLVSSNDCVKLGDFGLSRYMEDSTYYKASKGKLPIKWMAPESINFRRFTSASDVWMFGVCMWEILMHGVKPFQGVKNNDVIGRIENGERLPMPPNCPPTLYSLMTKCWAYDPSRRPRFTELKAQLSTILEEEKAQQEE

Row | Structure (SMILES) | IC50 [nM]
1 | COC(=O)c1ccc(Nc2ncc(C(F)(F)F)c(NCc3cccnc3N(C)S(C)(=O)=O)n2)cc1 [Compound 40, methyl 4-({4-[({2-[methyl(methylsulfonyl)amino]pyridin-3-yl}methyl)amino]-5-(trifluoromethyl)pyrimidin-2-yl}amino)benzoate] | 0.59
2 | CN(c1ncccc1CNc1nc(Nc2ccc(C(=O)O)cc2)ncc1C(F)(F)F)S(C)(=O)=O [Compound 42, 4-({4-[({2-[methyl(methylsulfonyl)amino]pyridin-3-yl}methyl)amino]-5-(trifluoromethyl)pyrimidin-2-yl}amino)benzoic acid] | 188
3 | CN(c1ncccc1CNc1nc(Nc2ccc(C(=O)O)cc2)ncc1C(F)(F)F)S(C)(=O)=O [Compound 43, 4-({4-[({2-[methyl(methylsulfonyl)amino)pyridin-3-yl}methyl)amino]-5-(trifluoromethyl)pyrimidin-2-yl}amino)benzoic acid] | 0.6
4 | CC(=O)N1CCC(Nc2ncc(C(F)(F)F)c(NCc3cccnc3N(C)S(C)(=O)=O)n2)CC1 [Compound 45, N-{3-[({2-[(1-acetylpiperidin-4-yl)amino]-5-(trifluoromethyl)pyrimidin-4-yl}amino)methyl)pyridin-2-yl}-N-methylmethane-sulfonamide] | 188
5 | CS(=O)(=O)c1cccc(CNc2nc(Nc3ccccc3)ncc2C(F)(F)F)c1 [Compound 46, N-4-(3-(methylsulfonyl)benzyl]-N-2-phenyl-5-(trifluoromethyl)pyrimidine-2,4-diamine] | 1.02
6 | Cc1ccc(CNc2nc(Nc3ccccc3)ncc2C(F)(F)F)c(N(C)S(C)(=O)=O)n1 [Compound 51, N-[3-({[2-anilino-5-(trifluoromethyl)pyrimidin-4-yl]amino}methyl)-6-methylpyridin-2-yl]-N-methylmethanesulfonamide] | 0.59
7 | CC(=O)NCC(=O)N1CCC(Nc2ncc(C(F)(F)F)c(NCc3cccnc3N(C)S(C)(=O)=O)n2)CC1 [Compound 56, N-{2-[4-({4-[({2-[methyl(methylsulfonyl)amino]pyridin-3-yl}methyl)amino]-5-(trifluoromethyl)pyrimidin-2-yl}amino)piperidin-1-yl]-2-oxoethyl}acetamide] | 188
8 | CN(c1ncccc1CNc1nc(NC2CCN(C(N)=O)CC2)ncc1C(F)(F)F)S(C)(=O)=O [Compound 57, 4-({4-[({2-[methyl(methylsulfonyl)amino]pyridin-3-yl}methyl)amino]-5-(trifluoromethyl)pyrimidin-2-yl}amino)piperidine-1-carboxamide] | 188
9 | CN(c1ncccc1CNc1nc(NC2CCN(C(=O)CC(F)(F)F)CC2)ncc1C(F)(F)F)S(C)(=O)=O [Compound 58, N-methyl-N-[3-({[5-(trifluoromethyl)-2-{[1-(3,3,3-trifluoropropanoyl)piperidin-4-yl]amino}pyrimidin-4-yl]amino}methyl)pyridin-2-yl]methanesulfonamide] | 165
10 | CCOC(=O)[C@H]1CC[C@@H](Nc2ncc(C(F)(F)F)c(NCc3cccnc3N(C)S(C)(=O)=O)n2)CC1 [Compound 60, ethyl cis-4-({4-(({2-[methyl(methylsulfonyl)amino]pyridin-3-yl}methyl)amino]-5-(trifluoromethyl)pyrimidin-2-yl}amino)cyclohexanecarboxylate] | 188
11 | CN(c1ncccc1CNc1nc(Nc2ccc(S(=O)(=O)Nc3ccccn3)cc2)ncc1C(F)(F)F)S(C)(=O)=O [Compound 61, 4-({4-[({2-[methyl(methylsulfonyl)amino]pyridin-3-yl}methyl)amino]-5-(trifluoromethyl)pyrimidin-2-yl}amino)-N-pyridin-2-ylbenzenesulfonamide] | 1.02
12 | Cc1ccc(CNc2nc(Nc3ccccc3)ncc2C(F)(F)F)c(NS(C)(=O)=O)c1 [Compound 62, N-[2-({[2-anilino-5-(trifluoromethyl)pyrimidin-4-yl]amino}methyl)-5-methylphenyl]methanesulfonamide] | 10.3
13 | Cc1ccc(N(C)S(C)(=O)=O)cc1CNc1nc(Nc2ccccc2)ncc1C(F)(F)F [Compound 63, N-[3-({[2-anilino-5-(trifluoromethyl)pyrimidin-4-yl]amino}methyl)-4-methylphenyl]-N-methylmethanesulfonamide] | 0.6
14 | Cc1cccc(CNc2nc(Nc3ccccc3)ncc2C(F)(F)F)c1N(C)S(C)(=O)=O [Compound 64, N-[2-({[2-anilino-5-(trifluoromethyl)pyrimidin-4-yl)amino}methyl)-6-methylphenyl]-N-methylmethanesulfonamide] | 0.6
15 | Cc1ccc(CNc2nc(Nc3ccccc3)ncc2C(F)(F)F)c(N(C)S(C)(=O)=O)c1 [Compound 65, N-[2-({[2-anilino-5-(trifluoromethyl)pyrimidin-4-yl]amino}methyl)-5-methylphenyl]-N-methylmethanesulfonamide] | 0.6

Second part, the molecule after the results:

Row | IC50 [nM] | Structure (SMILES)
16 | 188 | CN(c1ncccc1CNc1nc(NC2CCNCC2)ncc1C(F)(F)F)S(C)(=O)=O [Compound 44, N-methyl-N-[3-({[2-(piperidin-4-ylamino)-5-(trifluoromethyl)pyrimidin-4-yl]amino}methyl)pyridin-2-yl]methanesulfonamide]
17 | 0.59 | COc1cc(C(N)=O)ccc1Nc1ncc(C(F)(F)F)c(NCc2cccnc2N(C)S(C)(=O)=O)n1 [Compound 48, 3-methoxy-4-({4-[({2-[methyl(methylsuffonyl)amino]pyridin-3-yl}methyl)amino]-5-(trifluoromethyl)pyrimidin-2-yl}amino)benzamide]
18 | 0.59 | COc1cc(C(N)=O)ccc1Nc1ncc(C(F)(F)F)c(NCc2ccc(C)nc2N(C)S(C)(=O)=O)n1 [Compound 49, 3-methoxy-4-({4-[({6-methyl-2-[methyl(methylsulfonyl)-amino]pyridin-3-yl}methyl)amino]-5-(trifluoromethyl)pyrirnidin-2-yl}amino)benzamide]
19 | 1.95 | CNC(=O)c1ccc(Nc2ncc(C(F)(F)F)c(NCc3cccc(S(C)(=O)=O)c3)n2)cc1 [Compound 52, N-methyl-4-{[4-{[3-(methylsulfonyl)benzyl]amino}-5-(trifluoromethyl)pyrimidin-2-yl]amino}benzamide]
20 | 188 | COCC(=O)N1CCC(Nc2ncc(C(F)(F)F)c(NCc3cccnc3N(C)S(C)(=O)=O)n2)CC1 [Compound 55, N-[3-({[2-{[1-(methoxyacetyl)piperidin-4-yl]amino}-5-(trifluoromethyl)pyrimidin-4-yl]amino}methyl)pyridin-2-yl]-N-methylmethane-sulfonamide]
21 | 8.93 | CN(c1ncccc1CNc1nc(Nc2ccc(C(N)=O)cn2)ncc1C(F)(F)F)S(C)(=O)=O [Compound 59, 6-({4-[({2-[methyl(methylsulfonyl)amino]pyridin-3-yl}methyl)amino]-5-(trifluoromethyl)pyrimidin-2-yl}amino)nicotinamide]
22 | 0.6 | Cc1ccc(N(C)S(C)(=O)=O)c(CNc2nc(Nc3ccccc3)ncc2C(F)(F)F)c1 [Compound 66, N-[2-({[2-anilino-5-(trifluoromethyl)pyrimidin-4-yl]amino}methyl)-4-methylphenyl]-N-methylmethanesulfonamide]
23 | 0.6 | Cc1cccc(N(C)S(C)(=O)=O)c1CNc1nc(Nc2ccccc2)ncc1C(F)(F)F [Compound 67, N-[2-({[2-anilino-5-(trifluoromethyl)pyrimidin-4-yl]amino}methyl)-3-methylphenyl]-N-methylmethanesulfonamide]
